In publication PMC3885398, “Evaluation of the Antitumor Effects of BPR1J-340, a Potent and Selective FLT3 Inhibitor, Alone or in Combination with an HDAC Inhibitor, Vorinostat, in AML Cancer” (PLoS ONE, 2014):

How the values were obtained:
Assay type in all cases: biochemical
ABL1 = target: T1, ABL1 (Homo sapiens, UniProt P00519); assay: Invitrogen SelectScreen kinase profiling; conditions: 100 nM
T1 construct: purchased Invitrogen SelectScreen
Experimental: (§1) The FLT3 and VEGFR1/2 Kinase-Glo kinase assays were performed as reported by our earlier study. The VEGFR3 activity analysis was conducted using the same protocol described in the VEGFR1/2 assay. The kinase inhibition profiling and inhibitory activity of FLT3-D835Y, CSF1R, and TRKA were determined by Invitrogen SelectScreen® kinase profiling service (Carlsbad, California, USA).
(§2) BPR1J-340, a urea-substituted 3-phenyl-1H-5-pyrazolylamine-based compound, was designed through chemical modification of sulfonamide series of derivatives (BPR1J-097 series) by a structure-activity relationship (SAR) study (Fig. 1), [32]. For kinase inhibition specificity screening, BPR1J-340 was tested against 59 protein kinases covering the major oncogenic kinases of human protein kinome. […] In addition, BPR1J-340 inhibited TRKA, which is associated with the growth and metastasis of breast cancers, with an IC50 value of 8 nM. Given the high similarity of the ATP binding pockets of FLT3 and the Aurora kinases, the inhibitory activity toward Aurora A and Aurora B were measured. […] Taken together, BPRJ-340 is a selective kinase inhibitor with in vitro activity against FLT3, VEGFR2, VEGFR3 and TRKA receptor tyrosine kinases.

ABL1 T315I = target: T2, ABL1 T315I (Homo sapiens, UniProt P00519, T315I); assay: Invitrogen SelectScreen kinase profiling; conditions: 100 nM
T2 construct: purchased Invitrogen SelectScreen
Experimental: as §1, §2

AURKA (Aurora A) = target: T3, AURKA (Aurora A) (Homo sapiens, UniProt O14965); assay: Invitrogen SelectScreen kinase profiling; conditions: 100 nM
T3 construct: purchased Invitrogen SelectScreen
Experimental: as §1, §2

AURKC (Aurora C) = target: T4, AURKC (Aurora C) (Homo sapiens, UniProt Q9UQB9); assay: Invitrogen SelectScreen kinase profiling; conditions: 100 nM
T4 construct: purchased Invitrogen SelectScreen
T4 sequence (Q9UQB9 whole entry): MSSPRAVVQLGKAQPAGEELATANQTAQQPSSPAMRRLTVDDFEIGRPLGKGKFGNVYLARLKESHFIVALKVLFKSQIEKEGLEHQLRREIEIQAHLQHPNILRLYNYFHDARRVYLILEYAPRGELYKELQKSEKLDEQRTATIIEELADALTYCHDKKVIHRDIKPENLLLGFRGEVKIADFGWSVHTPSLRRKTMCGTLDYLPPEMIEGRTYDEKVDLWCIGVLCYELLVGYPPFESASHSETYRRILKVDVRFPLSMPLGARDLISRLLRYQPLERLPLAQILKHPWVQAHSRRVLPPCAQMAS
Experimental: as §1, §2

BRAF = target: T5, BRAF (Homo sapiens, UniProt P15056); assay: Invitrogen SelectScreen kinase profiling; conditions: 100 nM
T5 construct: purchased Invitrogen SelectScreen
Experimental: as §1, §2

BTK = target: T6, BTK (Homo sapiens, UniProt Q06187); assay: Invitrogen SelectScreen kinase profiling; conditions: 100 nM
T6 construct: purchased Invitrogen SelectScreen
Experimental: as §1, §2

CDC42 BPA (MRCKA) = target: T7, CDC42 BPA (MRCKA) (Homo sapiens, UniProt Q5VT25); assay: Invitrogen SelectScreen kinase profiling; conditions: 100 nM
T7 construct: purchased Invitrogen SelectScreen
Experimental: as §1, §2

FLT1 (VEGFR1) = target: T8, FLT1 (VEGFR1) (Homo sapiens, UniProt P17948); assay: Invitrogen SelectScreen kinase profiling; conditions: 100 nM
T8 construct: purchased Invitrogen SelectScreen
Experimental: as §1, §2

FLT3 = target: T9, FLT3 (Homo sapiens, UniProt P36888); assay: Invitrogen SelectScreen kinase profiling; conditions: 100 nM
T9 construct: purchased Invitrogen SelectScreen
T9 sequence (P36888 27-993): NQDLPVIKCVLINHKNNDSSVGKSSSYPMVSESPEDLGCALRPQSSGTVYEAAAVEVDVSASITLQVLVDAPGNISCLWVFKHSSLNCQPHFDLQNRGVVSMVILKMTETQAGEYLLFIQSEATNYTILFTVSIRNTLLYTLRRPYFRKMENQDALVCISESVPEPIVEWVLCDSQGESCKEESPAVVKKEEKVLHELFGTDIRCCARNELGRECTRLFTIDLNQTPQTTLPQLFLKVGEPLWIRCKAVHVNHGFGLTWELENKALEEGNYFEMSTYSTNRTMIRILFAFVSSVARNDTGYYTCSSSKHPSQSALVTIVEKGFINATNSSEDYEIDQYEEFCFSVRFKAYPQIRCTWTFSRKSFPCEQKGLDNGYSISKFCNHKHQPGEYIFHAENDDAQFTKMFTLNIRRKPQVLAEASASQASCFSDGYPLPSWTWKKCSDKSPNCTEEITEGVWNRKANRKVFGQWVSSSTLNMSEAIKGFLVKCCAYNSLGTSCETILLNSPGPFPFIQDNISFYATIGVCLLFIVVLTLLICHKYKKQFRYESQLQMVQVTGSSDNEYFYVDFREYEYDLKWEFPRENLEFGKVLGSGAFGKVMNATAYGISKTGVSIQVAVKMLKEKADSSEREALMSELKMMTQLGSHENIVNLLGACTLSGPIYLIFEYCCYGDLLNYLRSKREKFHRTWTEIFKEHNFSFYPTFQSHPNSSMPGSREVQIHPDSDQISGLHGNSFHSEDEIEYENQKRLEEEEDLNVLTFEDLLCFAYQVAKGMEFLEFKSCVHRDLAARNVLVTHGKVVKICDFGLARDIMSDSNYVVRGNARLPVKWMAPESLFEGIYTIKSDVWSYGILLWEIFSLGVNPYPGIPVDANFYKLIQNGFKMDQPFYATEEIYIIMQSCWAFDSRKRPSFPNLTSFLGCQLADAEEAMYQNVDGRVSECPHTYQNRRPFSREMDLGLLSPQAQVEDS
Experimental: as §1, §2

GSK3A (GSK3 alpha) = target: T10, GSK3A (GSK3 alpha) (Homo sapiens, UniProt P49840); assay: Invitrogen SelectScreen kinase profiling; conditions: 100 nM
T10 construct: purchased Invitrogen SelectScreen
T10 sequence (P49840 whole entry): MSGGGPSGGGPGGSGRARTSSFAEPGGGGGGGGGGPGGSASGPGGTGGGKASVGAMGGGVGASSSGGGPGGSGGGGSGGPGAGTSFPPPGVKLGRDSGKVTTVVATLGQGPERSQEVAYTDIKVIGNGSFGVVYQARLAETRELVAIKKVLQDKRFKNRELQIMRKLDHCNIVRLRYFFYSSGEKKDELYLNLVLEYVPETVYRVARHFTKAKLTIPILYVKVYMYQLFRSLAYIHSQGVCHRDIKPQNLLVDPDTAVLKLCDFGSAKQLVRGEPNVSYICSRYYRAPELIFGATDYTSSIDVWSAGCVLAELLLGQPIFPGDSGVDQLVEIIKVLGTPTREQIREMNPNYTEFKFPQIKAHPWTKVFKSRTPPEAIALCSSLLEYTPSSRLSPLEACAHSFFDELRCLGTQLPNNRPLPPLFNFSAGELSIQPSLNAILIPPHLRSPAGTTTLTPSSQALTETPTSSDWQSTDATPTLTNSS
Experimental: as §1, §2

IKBKE (IKK epsilon) = target: T11, IKBKE (IKK epsilon) (Homo sapiens, UniProt Q14164); assay: Invitrogen SelectScreen kinase profiling; conditions: 100 nM
T11 construct: purchased Invitrogen SelectScreen
T11 sequence (Q14164 whole entry): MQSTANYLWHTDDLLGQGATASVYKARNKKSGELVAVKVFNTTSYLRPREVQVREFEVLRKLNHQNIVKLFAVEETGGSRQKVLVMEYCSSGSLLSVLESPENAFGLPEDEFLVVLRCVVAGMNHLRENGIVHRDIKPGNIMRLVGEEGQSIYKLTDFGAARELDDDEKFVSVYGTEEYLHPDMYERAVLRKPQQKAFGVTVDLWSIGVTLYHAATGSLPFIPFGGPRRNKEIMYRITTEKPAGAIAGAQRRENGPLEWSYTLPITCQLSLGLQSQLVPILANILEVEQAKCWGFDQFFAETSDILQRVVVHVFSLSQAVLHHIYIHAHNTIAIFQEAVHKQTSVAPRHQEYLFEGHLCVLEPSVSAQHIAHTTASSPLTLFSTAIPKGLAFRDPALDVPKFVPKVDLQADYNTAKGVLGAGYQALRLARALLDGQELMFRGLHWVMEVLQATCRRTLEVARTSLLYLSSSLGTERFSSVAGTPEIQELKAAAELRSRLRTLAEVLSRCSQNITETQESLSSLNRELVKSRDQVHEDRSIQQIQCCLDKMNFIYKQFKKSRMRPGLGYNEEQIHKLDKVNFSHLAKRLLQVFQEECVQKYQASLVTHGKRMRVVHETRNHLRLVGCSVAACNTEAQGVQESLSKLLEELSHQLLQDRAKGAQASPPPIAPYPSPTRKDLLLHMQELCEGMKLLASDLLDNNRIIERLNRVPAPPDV
Experimental: as §1, §2

IRAK4 = target: T12, IRAK4 (Homo sapiens, UniProt Q9NWZ3); assay: Invitrogen SelectScreen kinase profiling; conditions: 100 nM
T12 construct: purchased Invitrogen SelectScreen
Experimental: as §1, §2

KIT = target: T13, KIT (Homo sapiens, UniProt P10721); assay: Invitrogen SelectScreen kinase profiling; conditions: 100 nM
T13 construct: purchased Invitrogen SelectScreen
T13 sequence (P10721 26-976): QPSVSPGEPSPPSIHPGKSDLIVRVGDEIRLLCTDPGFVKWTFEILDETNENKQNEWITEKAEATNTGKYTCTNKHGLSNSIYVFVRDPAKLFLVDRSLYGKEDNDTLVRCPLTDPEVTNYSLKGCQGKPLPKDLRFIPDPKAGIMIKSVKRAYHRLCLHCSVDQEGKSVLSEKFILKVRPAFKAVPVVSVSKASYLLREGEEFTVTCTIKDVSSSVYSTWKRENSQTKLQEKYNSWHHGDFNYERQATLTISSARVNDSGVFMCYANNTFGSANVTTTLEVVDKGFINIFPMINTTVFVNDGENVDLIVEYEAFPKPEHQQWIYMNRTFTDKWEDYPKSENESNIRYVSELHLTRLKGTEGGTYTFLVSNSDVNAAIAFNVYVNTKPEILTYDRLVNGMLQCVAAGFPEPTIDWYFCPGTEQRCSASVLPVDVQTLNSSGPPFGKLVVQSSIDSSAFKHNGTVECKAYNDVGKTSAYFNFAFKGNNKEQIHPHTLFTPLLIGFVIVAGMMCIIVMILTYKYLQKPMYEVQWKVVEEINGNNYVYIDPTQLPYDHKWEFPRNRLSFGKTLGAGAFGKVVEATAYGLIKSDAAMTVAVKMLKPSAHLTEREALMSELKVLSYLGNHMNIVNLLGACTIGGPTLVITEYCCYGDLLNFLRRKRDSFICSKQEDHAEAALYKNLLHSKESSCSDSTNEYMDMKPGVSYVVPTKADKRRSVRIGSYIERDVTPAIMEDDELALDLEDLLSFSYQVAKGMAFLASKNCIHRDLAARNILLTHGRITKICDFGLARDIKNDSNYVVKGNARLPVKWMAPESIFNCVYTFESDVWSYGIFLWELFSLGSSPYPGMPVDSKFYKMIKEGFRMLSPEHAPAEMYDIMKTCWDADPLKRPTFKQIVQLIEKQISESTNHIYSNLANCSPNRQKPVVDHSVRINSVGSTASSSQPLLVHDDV
Experimental: as §1, §2

LYN A = target: T14, LYN A (Homo sapiens, UniProt P07948); assay: Invitrogen SelectScreen kinase profiling; conditions: 100 nM
T14 construct: purchased Invitrogen SelectScreen
Experimental: as §1, §2

NEK1 = target: T15, NEK1 (Homo sapiens, UniProt Q96PY6); assay: Invitrogen SelectScreen kinase profiling; conditions: 100 nM
T15 construct: purchased Invitrogen SelectScreen
Experimental: as §1, §2

PDGFRB (PDGFR beta) = target: T16, PDGFRB (PDGFR beta) (Homo sapiens, UniProt P09619); assay: Invitrogen SelectScreen kinase profiling; conditions: 100 nM
T16 construct: purchased Invitrogen SelectScreen
Experimental: as §1, §2

RET = target: T17, RET (Homo sapiens, UniProt P07949); assay: Invitrogen SelectScreen kinase profiling; conditions: 100 nM
T17 construct: purchased Invitrogen SelectScreen
T17 sequence (P07949 29-1114): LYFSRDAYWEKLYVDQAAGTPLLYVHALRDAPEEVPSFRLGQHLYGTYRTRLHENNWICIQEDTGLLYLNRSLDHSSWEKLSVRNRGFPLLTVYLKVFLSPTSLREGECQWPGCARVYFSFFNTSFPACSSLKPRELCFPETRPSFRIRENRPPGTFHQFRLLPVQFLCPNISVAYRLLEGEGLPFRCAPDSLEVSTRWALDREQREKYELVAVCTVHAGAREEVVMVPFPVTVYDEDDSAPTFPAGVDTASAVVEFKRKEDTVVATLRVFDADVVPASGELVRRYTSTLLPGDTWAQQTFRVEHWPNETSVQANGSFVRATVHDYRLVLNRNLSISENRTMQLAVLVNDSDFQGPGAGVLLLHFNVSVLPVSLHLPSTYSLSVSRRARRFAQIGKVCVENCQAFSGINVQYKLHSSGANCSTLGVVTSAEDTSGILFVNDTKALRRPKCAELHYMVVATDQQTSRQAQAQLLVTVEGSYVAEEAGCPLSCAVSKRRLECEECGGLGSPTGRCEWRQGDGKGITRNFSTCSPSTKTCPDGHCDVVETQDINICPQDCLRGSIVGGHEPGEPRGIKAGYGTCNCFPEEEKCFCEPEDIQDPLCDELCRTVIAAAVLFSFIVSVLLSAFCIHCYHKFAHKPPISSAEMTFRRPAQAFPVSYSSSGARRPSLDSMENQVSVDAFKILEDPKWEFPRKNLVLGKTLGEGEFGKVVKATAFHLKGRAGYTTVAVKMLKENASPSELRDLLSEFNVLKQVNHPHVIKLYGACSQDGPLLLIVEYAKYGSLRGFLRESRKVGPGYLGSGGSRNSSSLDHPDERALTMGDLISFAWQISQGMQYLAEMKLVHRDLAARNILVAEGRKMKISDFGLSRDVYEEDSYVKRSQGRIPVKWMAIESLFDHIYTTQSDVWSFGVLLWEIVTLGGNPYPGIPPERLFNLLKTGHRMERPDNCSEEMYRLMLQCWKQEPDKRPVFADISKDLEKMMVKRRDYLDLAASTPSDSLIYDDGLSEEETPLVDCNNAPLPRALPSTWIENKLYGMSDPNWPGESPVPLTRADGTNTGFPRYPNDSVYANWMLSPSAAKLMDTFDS
Experimental: as §1, §2

RPS6KB1 (p70S6K) = target: T18, RPS6KB1 (p70S6K) (Homo sapiens, UniProt P23443); assay: Invitrogen SelectScreen kinase profiling; conditions: 100 nM
T18 construct: purchased Invitrogen SelectScreen
T18 sequence (P23443 whole entry): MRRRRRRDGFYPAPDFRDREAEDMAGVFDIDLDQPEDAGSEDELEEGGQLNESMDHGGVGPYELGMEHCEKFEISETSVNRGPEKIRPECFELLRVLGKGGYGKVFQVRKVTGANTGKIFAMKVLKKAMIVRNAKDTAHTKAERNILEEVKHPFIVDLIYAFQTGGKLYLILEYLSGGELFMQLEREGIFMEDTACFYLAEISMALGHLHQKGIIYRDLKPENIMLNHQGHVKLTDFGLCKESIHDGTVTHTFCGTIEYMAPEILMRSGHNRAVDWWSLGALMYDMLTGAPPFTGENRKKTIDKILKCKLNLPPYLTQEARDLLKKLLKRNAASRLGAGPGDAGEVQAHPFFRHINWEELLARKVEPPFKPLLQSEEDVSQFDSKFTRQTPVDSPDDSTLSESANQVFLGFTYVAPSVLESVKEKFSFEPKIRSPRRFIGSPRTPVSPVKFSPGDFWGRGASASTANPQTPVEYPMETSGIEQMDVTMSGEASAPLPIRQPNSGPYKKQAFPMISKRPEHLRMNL
Experimental: as §1, §2

KDR (VEGFR2) = KDR (VEGFR2) (Homo sapiens, UniProt P35968); assay: VEGFR2 Kinase-Glo kinase assay; design: VEGFR2 (residues V789-V1356); made in house
Experimental: The FLT3 inhibitors, BPR1J-340 and AC220, were synthesized by our laboratory. The histone deacetylase inhibitor vorinostat (SAHA) was purchased from SelleckBio (Houston, TX, USA). All inhibitors were dissolved in dimethylsulfoxide (DMSO) at a stock concentration of 10 mM. The anti-FLT3 (sc-480, Santa Cruz Biotechnology, Santa Cruz, CA, USA), anti-pFLT3-Tyr591 (#3461, Cell Signaling Technology, Beverly, MA, USA) anti-STAT5 (#9363, Cell Signaling Technology), anti-pSTAT5–Tyr694 (#9351, Cell Signaling Technology), anti-cleaved poly ADP-ribose polymerase (PARP) (#9542, Cell Signaling Technology), anti-Mcl-1 (#4572, Cell Signaling Technology), anti-caspase 3 (#9662, Cell Signaling Technology) and anti-β-actin (Gtx110546, GeneTex, Irvine, CA, USA) antibodies were purchased for Western blotting analysis. The preparation of recombinant proteins, FLT3 (residues Y567-S993), VEGFR1 (residues R781-I1338) and VEGFR2 (residues V789-V1356), for biochemical kinase assay was described previously. The VEGFR3 (residues M800-Y1363) proteins were purchased from Upstate (Billerica, MA, USA).
The FLT3 and VEGFR1/2 Kinase-Glo kinase assays were performed as reported by our earlier study. […] The kinase inhibition profiling and inhibitory activity of FLT3-D835Y, CSF1R, and TRKA were determined by Invitrogen SelectScreen® kinase profiling service (Carlsbad, California, USA).

## CCc1cc(NC(=O)NCc2ccc(-c3cc(NC(=O)c4ccc(CN5CCN(C)CC5)cc4)[nH]n3)cc2)no1 [BPR1J-340, N1-(3-4-[([(5-ethyl-3-isoxazolyl)amino]carbonylamino)methyl]phenyl-1H-5-pyrazolyl)-4-[(4-methylpiperazino)methyl]benzamide]
ABL1
  inhibition at 0.1 µM: 7%
ABL1 T315I
  inhibition at 0.1 µM: 15%
AURKA (Aurora A)
  inhibition at 0.1 µM: 15%
AURKC (Aurora C)
  inhibition at 0.1 µM: 19%
BRAF
  inhibition at 0.1 µM: 5%
BTK
  inhibition at 0.1 µM: 7%
CDC42 BPA (MRCKA)
  inhibition at 0.1 µM: -8%
FLT1 (VEGFR1)
  inhibition at 0.1 µM: 15%
FLT3
  inhibition at 0.1 µM: 97%
GSK3A (GSK3 alpha)
  inhibition at 0.1 µM: -1%
IKBKE (IKK epsilon)
  inhibition at 0.1 µM: 21%
IRAK4
  inhibition at 0.1 µM: 4%
KIT
  inhibition at 0.1 µM: 66%
LYN A
  inhibition at 0.1 µM: 17%
NEK1
  inhibition at 0.1 µM: -6%
PDGFRB (PDGFR beta)
  inhibition at 0.1 µM: 39%
RET
  inhibition at 0.1 µM: 49%
RPS6KB1 (p70S6K)
  inhibition at 0.1 µM: -18%
KDR (VEGFR2)
  IC50: 28 ± 9 nM
